Source: patent US6046231A, “Use of 4'-bromoflavone in a cancer chemopreventative composition and method” (The Board of Trustees of the University of Illinois, priority 1999, dated 2000)
Where two headings read alike, the source gives them in different places.

Key:
[1] = test system: quinone reductase (QR), mutant Hepa 1c1c7 cells (TAOBP^r cl and BP^r cl); experiment: QR induction in mutant Hepa 1c1c7 cell lines (mono-/bifunctional inducer); assay type: cell-based, murine; details: wild-type vs mutant cells
Protocol: Determination of Quinone Reductase Activity in Cell Cultures. To determine the potency of inducers, Hepa 1c1c7 murine hepatoma cells as described in the Gerhauser publication were placed in 96-well plates at a density of 1×10^4 cells/ml in 200 μl of medium. After a preincubation period of 24 hr, the media were decanted and 190 μl fresh media were added to each well. Ten (10) μl test agents dissolved in 10% DMSO (final concentration of DMSO is 0.5%) with a serial 2-fold dilutions were introduced to each well, and the plates were incubated for an additional 48 hours. Specific QR activity was determined by measuring the NADPH-dependent menadiol-mediated reduction of 3-(4, 5-dimethylthiazo-2-yl)-2,5-diphenyltetrazolium bromide to blue formazan formed per mg protein per minute. Protein was determined in an identical set of test plates by staining with crystal violet. […] Induction of QR activity was calculated by comparing the QR specific activity of agent-treated cells with that of solvent-treated cells, and a plot of ratio was generated. […]
Induction of Quinone Reductase in Hepa 1c1c7 Cells. […] Induction of QR activity was calculated by comparing the QR specific activity of agent-treated cells with the QR specific activity of solvent-treated cells, and a plot of ratios was generated. […]

[2] = test system: QR mRNA, Hepa 1c1c7 cells; experiment: RT-PCR of QR mRNA in Hepa 1c1c7 cells; assay type: cell-based, murine
Protocol: RT-PCR Analysis of QR mRNA Expression. Primers were designed based on rat QR gene and custom synthesis. Total RNA was isolated from cultured Hepa 1c1c7 cells with TRIzol® reagent (Life Technologies, Inc.) and quantified using a UV-spectrometer. The reverse transcription of RNA was performed in a final volume of 20 μl containing 5× First Straind Synthesis Buffer (Life Technologies, Inc.), 5 mM MgCl2, 1 mM of each dNTPs, 1 unit Rnase inhibitor (Life Technologies, Inc.), 2.5 units SuperScript II reverse transcriptase (Life Technologies, Inc.), 2.5 μM oligo (dT)16, 0.2 μg total RNA, and DEPC-treated water. After incubation at 47° C. for 30 min, the RT-reaction was terminated by heating to 70° C. for 15 minutes. To the newly synthesized cDNA (1 μL), a PCR reaction mixture (Advantage KlenTaq polymerase Mix, CloneTech) containing 3 mM MgCl2, 2.5 units Taq polymerase, 6 pmol of primers for QR gene (5'-[…]-3'; and 3 pmol of primers for β-actin, 5'-[…]-3'), (5'-[…]-3'; 5'-[…]-3') as internal control was added to bring the final volume to 50 μl. The PCR reaction was heated to 94° C. for 1 min and immediately cycled 27 times through a 30 second denaturing step at 94° C., a 45 second annealing step at 55° C., a 60 second elongation step at 72° C. with Perkin Elmer 2400 themocycler. Following the final cycle, a 5 minute elongation step at 72° C. was performed. Aliquots of the PCR product were electrophoresed on 2.5% agarose gels (Life Technologies, Inc.), and PCR fragments were visualized with ethidium bromide staining, quantified by scanning densitometry, and expressed as folds increase after normalization to β-actin gene expression.
Induction of QR mRNA in Hepa 1c1c7 Cells. […] EHPA 1c1c7 cells were treated with 4'-BF (10 μM) or DMSO (solvent control) for 2, 4, 8, 16, 24, or 48 hours. […] Dose-dependent effects of 4'-BF were analyzed at the time of maximum induction (24 hours), and QR mRNA expression was induced in the concentration range of 0.8-50 μM. In particular, FIG. 2 illustrates RT-PCR analysis of QR mRNA levels in Hepa 1c1c7 cells after treatment with 4'-BF. In FIG. 2(A), Hepa 1c1c7 cells were treated with the indicated concentrations of 4'-BF for 24 hours. In FIG. 2(B), Hepa 1c1c7 cells were treated with 10 μM 4'-BF for the indicated periods of time. Reverse transcription was carried out by SuperScript II reverse transcriptase (Life Technologies, Inc.) and oligo(dT)16. The cDNA was amplified with Advantage Klen Taq polymerase (Clontech) by using QR primers and β-acrin (internal control), aliquots of the PCR product were electrophoresed on 2.5% agarose gels (Bio-Rad), and PCR fragments were visualized with ethidium bromide staining.

cytochrome P-4501A1 = details: cited from earlier work

O=c1cc(-c2ccc(Br)cc2)oc2ccccc12 [4'-Bromoflavone]
inducer type (mono-/bifunctional) [1]: bifunctional inducer | QR mRNA levels ([2]; 0-50 μM for 24 h): significantly increased by 4'-BF at various concentrations | QR mRNA, time course from 8 to 24 hours ([2]; 10 μM): no significant differences from 8 to 24 hours | incubation time after which QR mRNA increased ([2]; 10 μM): 8 h | time of maximum QR mRNA induction ([2]; 10 μM): 24 h | concentration range of QR mRNA induction ([2]; 24 h): 0.8 to 50 µM | levels of cytochrome P-4501A1 (cytochrome P-4501A1): significantly increase | levels of cytochrome P-4501A1 (cytochrome P-4501A1; listed as 4'-bromoflavone): phase I induction
